Experimental data as given in patent publication US20130216590A1, “TOPICAL ANTIVIRAL FORMULATIONS FOR PREVENTION OF TRANSMISSION OF HSV-2” (priority 2010, published 2013).
Values after ≈ are worked out from the molar mass of the structure shown.

Key:
[1] = test system: HSV-1 and HSV-2 clinical isolates; assay: organism not typed; assay type: cell-based, herpes simplex virus; details: for antiherpetic activity against thymidine kinase-deficient strains compared with wild-type: clinical isolates, HEL
HSV-2 = assay: Herpes virus infection of primary monocyte/macrophage (M/M) cell cultures; assay type: cell-based
Method: Human peripheral blood mononuclear cells (PBMCs) were obtained from the blood of healthy seronegative donors by Ficoll-Hypaque density gradient centrifugation. […] Monocyte/macrophage (M/M) cells were separated by adherence onto plastic. […] African green monkey fibroblastoid kidney (Vero) cells highly sensitive to the cytopathic effect of HSV-2 were grown in RPMI medium supplemented with 10% heat inactivated FCS and were used in infectious virus titration assays.
Macrophage cultures were then infected with HSV-2 (100 CCID50) in the presence of the test compounds. After 2 hrs virus adsorption, the cultures were extensively washed to remove any residual virus particles. Fresh culture medium and compounds, at the indicated concentrations, were then added to the cultures. […] Appropriate positive (infected but not treated M/M) and mock-infected negative (uninfected and untreated M/M) controls were run for each experiment as well. All assays were performed in triplicate. […] Therefore, the potential inhibitory effect of the compounds on the replication of HSV-2 was evaluated 6 days after infection. The amount of infectious virus in the supernatants was determined by a classical limited dilution assay on Vero cell cultures. The titers of produced virus were calculated according to the Reed and Muench method and expressed as 50% tissue culture infective dose per ml (TCID50/ml).
The inhibition capacity was expressed in % and calculated considering as value 100 being the virus production in virus-infected untreated cultures.

HSV-2 strain G (HSV-2G) = assay: Human ex vivo tonsillar tissue, HSV DNA release by real-time PCR; assay type: cell-based; details: 33 μg/ml; tissues from two donors; data not shown
Method: For each experimental condition 16 tissue blocks were immersed in 500 μl of a HSV-2 (strain G) suspension for 2 hours at 37° C., washed three times with PBS and then placed on the gelfoam rafts. Tenofovir was added during the infection and replenished at each culture medium change. Herpes simplex viral replication was evaluated by the release of viral DNA into the culture medium as measured by quantitative real-time PCR (17). HIV-1 replication was evaluated by the release of p24 capsid antigen using a bead-based assay (18).

HSV-1 DNA polymerase = biological target: T1, HSV-1 DNA polymerase (Human herpesvirus 1, UniProt P04293); assay: HSV-1 DNA polymerase assay; assay type: biochemical; details: activated calf thymus DNA primer/template; [2,8-3H]dATP competing substrate
T1 construct: gift of M. W. Wathen (Pfizer, Kalamazoo, Mich.)
Method: (§1) The reaction mixture (40 μl) for the HSV-1 DNA polymerase and HIV-1 RT assays contained 4 μl Premix (200 mM Tris.HCl, pH 7.5; 2 mM DTT; 30 mM MgCl2), 4 μl BSA (5 mg/ml), 1.6 μl activated calf thymus DNA (1.25 mg/ml), 0.8 μl dCTP (5 mM), 0.8 μl dTTP (5 mM), 0.8 μl dGTP (5 mM), 2 μl radiolabeled [^3H]dATP (1 mCi/ml) (3.3 μM), 18 μl H2O and 4 μl tenofovir-DP at different concentrations (i.e. 200, 20, 2, 0.2 μM). The reaction was started by the addition of 4 μl recombinant HSV-1 DNA polymerase (kindly provided by M. W. Wathen (Pfizer, Kalamazoo, Mich.)) or recombinant HIV-1 RT (in 20 mM Tris.HCl, pH 8.0; 1 mM DTT; 0.1 mM EDTA; 0.2 M NaCl; 40% glycerol), and the reaction mixture was incubated for 60 min (HSV-1 DNA polymerase) or 30 min (HIV-1 RT) at 37° C. Then, 1 ml ice-cold 5% TCA in 0.02 M Na4P2O7.10H2O was added to terminate the polymerisation reaction, after which the acid-insoluble precipitate (radiolabeled DNA) was captured onto Whatman glass fiber filters type GF/C (GE Healthcare UK Limited, Buckinghamshire, UK) and further washed with 5% TCA and ethanol to remove free radiolabeled dATP. Radioactivity was determined in a Perkin Elmer Tri-Carb 2810 TR liquid scintillation counter.

HIV-1 RT = biological target: T2, HIV-1 RT (Human immunodeficiency virus type 1 group M subtype B, UniProt P04585); assay: HIV-1 reverse transcriptase assay; assay type: biochemical
T2 construct: HSV-1 DNA Polymerase and HIV-1 Reverse Transcriptase Assay
Method: as §1

HSV-1 (Kos strain) = assay: In vivo antiviral activity in HSV-1-infected NMRI athymic nude mice
Method: (§2) Adult NMRI athymic nude mice (weighing ˜20 g) were scarified on the lumbosacral area over a surface of about 1 cm^2. Mice were inoculated with 5×10^3 PFU of HSV-1 (Kos strain) or 5×10^2 of HSV-2 (G strain) in 50 μL per mouse. […] In each experiment, a group of animals treated with a placebo formulation that was the same as the test formulation without drug was included as a negative control. […] The day of virus inoculation was always considered as day 0. All animal procedures were approved by the K.U. Leuven Animal Care Committee. Development of lesions and mortality were recorded over a one month period. Animals were euthanized when more than 30% loss in body weight or development of paralysis occurred. Survival rates were estimated according to the Kaplan-Meir method and were compared using the log-rank test (Mantel-Cox) test (GraphPad Prism).

HSV-1 and HSV-2 = assay: HSV cytopathic effect (CPE) reduction assay, laboratory strains, HEL cell monolayers and PHKs; assay type: cell-based, herpes simplex virus; details: laboratory HSV strains; HEL cell monolayers and PHKs; read-out: EC50, inhibition of virus-induced cytopathicity
[2] = test system: organotypic raft cultures of keratinocytes; assay: Toxic effects in organotypic epithelial raft cultures; assay type: cell-based; details: highest concentration, 50 μg/ml
Method: (§3) For the preparation of epidermal equivalents, a collagen matrix solution was made with collagen mixed on ice with 10-fold concentrated HAM's F12 media, 10-fold reconstitution buffer and Swiss 3T3 J2 fibroblasts. One milliliter of the collagen matrix solution was poured into the wells of 24-well microtiter plates. After gel equilibration with 1 ml of growth medium overnight at 37° C., 2.5×10^5 PHK cells were seeded on the top of the gels and maintained submerged for 24-48 hours. The collagen rafts were raised and placed onto stainless-steel grids at the interface between air and liquid culture medium. The growth medium was a mixture of ⅓ HAM F12 and ⅔ Dulbecco's modified Eagle's medium, with the same supplements as used for the Keratinocyte-SFM. Epithelial cells were allowed to stratify, the medium being replaced every 2-3 days. For the evaluation of the antiviral effects of the compounds in the raft system, two series of rafts were run in parallel, one for histological examination and the other one for quantification of viral production by a plaque reduction assay. Rafts were infected with 5,000 PFU of HSV-1 (KOS) or […] strains after 10 days post-lifting and then the medium was replaced by medium containing different dilutions of the compounds. The growth medium containing the different concentrations of the compounds was changed two days later and 3 days later (after 15 days of differentiation), one series of rafts was fixed in 10% buffered formalin, embedded in paraffin and stained with hematoxylin and eosin for histological evaluation. Another series of rafts was used to quantify virus production. For that purpose, each raft was frozen in 3 ml phosphate buffer saline (PBS) and thawed to release the virus from the infected epithelium. Supernatants were clarified by centrifugation at 1,800 rpm and titrated by a plaque assay in HEL cell cultures. Virus production in each raft was then calculated. Two rafts were used for each drug concentration to determine the effects of the compounds on virus yield.

HSV-2 (G) = assay: Organotypic epithelial raft cultures infected with HSV-2; assay type: cell-based; details: for activity against HSV replication in rafts compared with tenofovir: HSV-1 and HSV-2, FIGS. 3A and 3B; for concentration resulting in complete protection of the epithelial tissue: HSV-2, data not shown
Method: as §3

HSV-1 (KOS) = assay: Organotypic epithelial raft cultures infected with HSV-1; assay type: cell-based; details: reference HSV-1 laboratory strain
Method: as §3

HSV-2 (G strain) = assay: In vivo antiviral activity in HSV-2-infected NMRI athymic nude mice; details: for protection against viral-induced morbidity and mortality: 1% in DMSO (FIG. 5B)
Method: as §2

T1 sequence (P04293 whole entry): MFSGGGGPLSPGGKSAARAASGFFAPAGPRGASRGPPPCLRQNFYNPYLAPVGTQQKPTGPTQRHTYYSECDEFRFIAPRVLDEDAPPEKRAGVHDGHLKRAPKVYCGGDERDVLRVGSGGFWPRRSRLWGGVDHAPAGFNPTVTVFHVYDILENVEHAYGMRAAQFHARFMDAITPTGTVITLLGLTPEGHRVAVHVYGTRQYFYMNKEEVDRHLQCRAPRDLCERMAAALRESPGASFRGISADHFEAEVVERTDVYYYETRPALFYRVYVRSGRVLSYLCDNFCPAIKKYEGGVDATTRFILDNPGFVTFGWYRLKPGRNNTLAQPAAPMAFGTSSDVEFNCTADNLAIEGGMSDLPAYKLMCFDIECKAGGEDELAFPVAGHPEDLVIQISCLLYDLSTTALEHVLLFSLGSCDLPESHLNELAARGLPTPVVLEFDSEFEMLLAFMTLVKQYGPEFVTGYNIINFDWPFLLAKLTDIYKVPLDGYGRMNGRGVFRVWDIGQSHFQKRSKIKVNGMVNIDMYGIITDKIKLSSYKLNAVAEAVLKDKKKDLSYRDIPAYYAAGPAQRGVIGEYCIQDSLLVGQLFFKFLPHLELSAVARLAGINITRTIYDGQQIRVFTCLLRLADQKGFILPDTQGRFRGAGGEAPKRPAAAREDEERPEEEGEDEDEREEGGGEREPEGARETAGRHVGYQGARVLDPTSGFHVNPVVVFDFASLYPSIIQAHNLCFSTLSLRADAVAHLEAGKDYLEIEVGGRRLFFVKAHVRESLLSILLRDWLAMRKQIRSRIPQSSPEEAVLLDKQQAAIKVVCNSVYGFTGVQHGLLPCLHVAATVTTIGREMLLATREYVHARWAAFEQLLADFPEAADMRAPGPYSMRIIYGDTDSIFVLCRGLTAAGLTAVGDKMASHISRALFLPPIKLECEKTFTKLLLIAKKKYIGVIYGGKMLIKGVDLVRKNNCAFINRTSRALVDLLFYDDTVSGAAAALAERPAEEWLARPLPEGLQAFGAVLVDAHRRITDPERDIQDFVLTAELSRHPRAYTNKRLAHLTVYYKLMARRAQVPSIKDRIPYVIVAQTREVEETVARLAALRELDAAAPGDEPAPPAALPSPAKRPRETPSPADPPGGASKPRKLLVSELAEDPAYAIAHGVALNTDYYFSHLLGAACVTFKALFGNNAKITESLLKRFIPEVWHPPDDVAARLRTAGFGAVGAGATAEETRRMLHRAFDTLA

Nc1nc2c(ncn2COC(CO)CO)c(=O)[nH]1 [ganciclovir, 9-(1,3-dihydroxy-2-propoxymethyl)guanine]
antiherpetic activity against thymidine kinase-deficient strains compared with wild-type [1]: lost their antiherpetic activity

Nc1nc2c(ncn2CCC(CO)CO)c(=O)[nH]1 [penciclovir, 9-(4-hydroxy-3-hydroxymethylbut-1-yl)guanine]
antiherpetic activity against thymidine kinase-deficient strains compared with wild-type [1]: lost their antiherpetic activity

Nc1nc2c(ncn2COCCO)c(=O)[nH]1 [acyclovir, 9-(2-hydroxyethoxymethyl)guanine]
virus released in the supernatants and visible cytopathicity (HSV-2; concentrations equal to, or higher than 0.008 μg/ml): full suppression of virus released in the supernatants and no visible cytopathicity

Nc1ccn([C@@H]2CS[C@H](CO)O2)c(=O)n1 [lamivudine]
effect on HSV-2G replication compared to untreated donor-matched tissues (HSV-2 strain G (HSV-2G)): no effect

C[C@H](Cn1cnc2c(N)ncnc21)OCP(=O)(O)OP(=O)(O)OP(=O)(O)O [Tenofovir-DP, (R)-(1-(6-amino-9H-purin-9-yl)propan-2-yloxy)methylphosphonic diphosphoric anhydride]
IC50 (HSV-1 DNA polymerase): 1.3 µM | IC50 (HIV-1 RT): 4.3 µM

O=c1[nH]c(=O)n([C@H]2C[C@H](O)[C@@H](CO)O2)cc1/C=C/Br [brivudin, RE)-5-(2-bromovinyl)-1(-D-2′-deoxyribofuranos-1-yl-uracil]
antiherpetic activity against thymidine kinase-deficient strains compared with wild-type [1]: lost their antiherpetic activity

Nc1ncnc2c1ncn2CCOCP(=O)(O)O [adefovir, 9-[2-(phosphonylmethoxyethyl)adenine]]
survival (HSV-1 (Kos strain); 1% in DMSO): 80% | skin lesions in mice that died (HSV-1 (Kos strain); 1% in DMSO formulation): died without developing skin lesions | survival (HSV-1 (Kos strain); 1% in gel, data not shown): 100% | HSV titer in supernatants (HSV-2; 0.4 μg/ml): 5.4×10^3 TCID50/ml | visible CPE (HSV-2; 0.4 μg/ml): 45% | HSV titer in supernatants (HSV-2; 1 μg/ml): 8.5×10^2 TCID50/ml | visible CPE (HSV-2; 1 μg/ml): 5% | viral particles in the supernatants and visible CPE (HSV-2; drug concentrations between 500 and 5 μg/ml): neither viral particles in the supernatants nor visible CPE were found | EC50 (HSV-1 and HSV-2): 3.6 to 13 µg/mL (≈ 13.2 to 47.6 µM) | toxic effects (increase in number of dead cells or alteration of differentiation) [2]: No toxic effects | activity against HSV replication in rafts compared with tenofovir (HSV-2 (G)): more active against HSV replication than tenofovir | concentration resulting in complete protection of the epithelial tissue (HSV-2 (G)): ≥ 2 µg/mL | concentration giving complete protection from virus-induced cytopathic effect (HSV-1 (KOS)): 2 µg/mL | protection against viral-induced morbidity and mortality (HSV-2 (G strain)): 80% | appearance of lesions and subsequent death (HSV-2 (G strain); formulated in the gel at 1%): significant delay in the appearance of lesions and subsequent death

Nc1ccn(C[C@@H](CO)OCP(=O)(O)O)c(=O)n1 [cidofovir, (S)-1-(3-hydroxy-2-phosphonylmethoxypropyl)cytosine]
protection against virus-induced morbidity and mortality (HSV-1 (Kos strain); either the DMSO or the gel formulation): completely protected | EC50 ([1]; Fibroblast, read-out: mean EC50 values (range over isolate groups)): 0.35 to 0.67 µg/mL (≈ 1.25 to 2.4 µM) | EC50 (HSV-1 and HSV-2): 0.63 to 4.4 µg/mL (≈ 2.26 to 15.8 µM) | toxic effects (increase in number of dead cells or alteration of differentiation) [2]: No toxic effects | activity against HSV replication in rafts compared with tenofovir (HSV-2 (G)): more active against HSV replication than tenofovir | concentration resulting in complete protection of the epithelial tissue (HSV-2 (G)): 0.2 µg/mL | concentration giving complete protection from virus-induced cytopathic effect (HSV-1 (KOS)): ≥ 0.5 µg/mL | protection against viral-induced morbidity and mortality (HSV-2 (G strain)): 100% | protection against HSV-2-induced morbidity and mortality (HSV-2 (G strain); formulated in gel): 80%
